SMILES strings stand for the structures. Structures can show the parent of a compound that is named as a salt. Some results are limits rather than exact numbers.

The assay addresses T1, BACE-2 (Homo sapiens, UniProt Q9Y5Z0).
T1 construct: Recombinant BACE-2 (extracellular domain, expressed in baculovirus and purified using standard methods); made in house
T1 sequence (Q9Y5Z0 63-473 limits assumed): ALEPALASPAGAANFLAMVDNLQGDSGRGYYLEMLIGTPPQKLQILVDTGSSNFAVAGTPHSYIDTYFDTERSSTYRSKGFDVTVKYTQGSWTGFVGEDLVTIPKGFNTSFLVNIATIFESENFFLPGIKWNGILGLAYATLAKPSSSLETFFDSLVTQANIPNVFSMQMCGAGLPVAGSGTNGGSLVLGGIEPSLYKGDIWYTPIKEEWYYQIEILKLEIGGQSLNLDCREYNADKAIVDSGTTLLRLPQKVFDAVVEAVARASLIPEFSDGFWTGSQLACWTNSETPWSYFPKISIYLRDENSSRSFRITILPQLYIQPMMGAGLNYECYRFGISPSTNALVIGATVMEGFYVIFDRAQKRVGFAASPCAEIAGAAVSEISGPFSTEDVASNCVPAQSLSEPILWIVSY
The assay is described as follows: assay for inhibition of BACE-2. In kind it is biochemical.
Usually IC50 stands for the concentration at which inhibition is half-maximal. High values mean weaker potency, low ones greater potency. Compound `CC1(c2cccc(NC(=O)c3ncc(C(F)(F)F)cc3Cl)c2)COCC(N)=N1` (centres unmarked) [Example 17, 3-Chloro-5-trifluoromethyl-pyridine-2-carboxylic acid [3-(5-amino-3-methyl-3,6-dihydro-2H-[1,4]oxazin-3-yl)-phenyl]-amide hydrochloride] came in with an IC50 of 694 nM. For `C[C@@]1(c2cc(NC(=O)c3ncc(Cl)cc3F)ccc2F)CO[C@@](C)(C(F)(F)F)C(N)=N1` [Example 235, 5-Chloro-3-fluoro-pyridine-2-carboxylic acid [3-((3R,6R)-5-amino-3,6-dimethyl-6-trifluoromethyl-3,6-dihydro-2H-[1,4]oxazin-3-yl)-4-fluoro-phenyl]-amide hydrochloride] the value was 2 nM. The compound `CCc1ccc(C(=O)Nc2ccc(F)c([C@]3(C(F)F)COCC(N)=N3)c2)nc1` [Example 159, hydrochloride] registered an IC50 of 119 nM. In turn, `NC1=N[C@@](c2cc(NC(=O)c3ccc(C(F)(F)F)cn3)ccc2F)(C(F)F)COC1` [Example 47] displayed a concentration for half-maximal inhibition (IC50) of 251 nM.

`NC1=N[C@@](c2cc(NC(=O)c3ccc(Br)cn3)ccc2F)(C(F)F)COC1` [Example 118]: the IC50 is 11 nM. Consider `Cc1nc(C(=O)Nc2cccc(C3(C(F)F)COCC(N)=N3)c2)c(C)o1` (centres unmarked) [Example 106], for which the IC50 turned out to be 1040 nM. For `NC1=N[C@@](c2cc(NC(=O)c3ncc(F)cc3F)ccc2F)(C(F)F)COC1` [Example 113] the value was 29 nM. For `Cc1cc(Br)cnc1C(=O)Nc1ccc(F)c(C2(C(F)F)CN(C(=O)C3CC3)CC(N)=N2)c1` (centres unmarked) [Example 209, 5-Bromo-3-methyl-pyridine-2-carboxylic acid [3-(6-amino-4-cyclopropanecarbonyl-2-difluoromethyl-2,3,4,5-tetrahydro-pyrazin-2-yl)-4-fluoro-phenyl]-amide] the value was 6 nM. The result for `NC1=N[C@@](c2cc(NC(=O)c3ncc(Cl)cc3N)ccc2F)(C(F)F)COC1` [Example 160, 3-Amino-5-chloro-pyridine-2-carboxylic acid [3-((R)-5-amino-3-difluoromethyl-3,6-dihydro-2H-[1,4]oxazin-3-yl)-4-fluoro-phenyl]-amide hydrochloride] reads 8 nM; that for `COc1cc(Br)cnc1C(=O)Nc1cccc(C2(C(F)F)COCC(N)=N2)c1` (centres unmarked) [Example 107], 133 nM; that for `NC1=N[C@@](c2cc(NC(=O)c3ncc(Cl)cc3Cl)ccc2F)(C(F)F)COC1` [Example 111], 7 nM. `CC1(c2cccc(NC(=O)c3ccc(C#N)cn3)c2)COCC(N)=N1` (centres unmarked) [Example 14, 5-Cyano-pyridine-2-carboxylic acid [3-(5-amino-3-methyl-3,6-dihydro-2H-[1,4]oxazin-3-yl)-phenyl]-amide hydrochloride] had an IC50 of 335 nM. The result for `NC1=N[C@@](c2cc(NC(=O)c3ncc(C(F)F)cc3N)ccc2F)(C(F)F)COC1` [Example 226] reads 90 nM; that for `CCN1CC(C)(c2cc(NC(=O)c3ncc(Cl)cc3Cl)ccc2F)N=C(N)C1=O` (centres unmarked) [Example 193, 3,5-Dichloro-pyridine-2-carboxylic acid [3-(6-amino-4-ethyl-2-methyl-5-oxo-2,3,4,5-tetrahydro-pyrazin-2-yl)-4-fluoro-phenyl]-amide hydrochloride], 8 nM.

`CCC1C(N)=NC(C)(c2cccc(NC(=O)c3ccc(Br)cn3)c2)C(=O)N1C` (mixture of isomers) [Example 200, 5-Bromo-pyridine-2-carboxylic acid [3-(6-amino-5-ethyl-2,4-dimethyl-3-oxo-2,3,4,5-tetrahydro-pyrazin-2-yl)-phenyl]-amide] displayed an IC50 of 1250 nM. For `NC1=N[C@@](c2cc(NC(=O)c3cc(Br)co3)ccc2F)(C(F)F)COC1` [Example 125] the value was 102 nM; for `[2H]c1nc(C(=O)Nc2cccc(C3(CF)COCC(N)=N3)n2)c(C([2H])([2H])[2H])c([2H])c1Cl` (centres unmarked) [Example 262, 5-{6-[(4,6-Dideutero-5-chloro-3-trideuteromethyl-pyridine-2-carbonyl)-amino]-pyridin-2-yl}-5-fluoromethyl-5,6-dihydro-2H-[1,4]oxazin-3-yl-ammonium trifluoro acetate], 242 nM. For `CN1CC(N)=NC(C)(c2cc(NC(=O)c3ccc(Br)cn3)ccc2F)C1=O` (centres unmarked) [Example 186, 5-Bromo-pyridine-2-carboxylic acid [3-(6-amino-2,4-dimethyl-3-oxo-2,3,4,5-tetrahydro-pyrazin-2-yl)-4-fluoro-phenyl]-amide] the value was 9110 nM; for `CC1(c2cccc(NC(=O)c3ccc(C(F)(F)F)cn3)c2)COCC(N)=N1` (centres unmarked) [Example 22, 5-Trifluoromethyl-pyridine-2-carboxylic acid [3-(5-amino-3-methyl-3,6-dihydro-2H-[1,4]oxazin-3-yl)-phenyl]-amide hydrochloride], 1500 nM. The result for `NC1=N[C@@](c2cc(NC(=O)c3cc4ccccn4n3)ccc2F)(C(F)F)COC1` [Example 126] reads 550 nM.

For `C[C@]1(c2cccc(NC(=O)c3ccc(Br)cn3)c2)COCC(N)=N1` [Example 4, 5-Bromo-pyridine-2-carboxylic acid [3-((S)-5-amino-3-methyl-3,6-dihydro-2H-[1,4]oxazin-3-yl)-phenyl]-amide hydrochloride], the half-inhibitory concentration (IC50) is above 10000 nM. For `CN1CC(C)(c2cc(NC(=O)c3ccc(Br)cn3)ccc2F)N=C(N)C1=O` (centres unmarked) [Example 189, 5-Bromo-pyridine-2-carboxylic acid [3-(6-amino-2,4-dimethyl-5-oxo-2,3,4,5-tetrahydro-pyrazin-2-yl)-4-fluoro-phenyl]-amide hydrochloride] the value was 49 nM; for `Cc1cc(Cl)cnc1C(=O)Nc1ccc(F)c([C@]2(C)CO[C@@](C)(C(F)(F)F)C(N)=N2)c1` [Example 234, 5-Chloro-3-methyl-pyridine-2-carboxylic acid [3-((3R,6R)-5-amino-3,6-dimethyl-6-trifluoromethyl-3,6-dihydro-2H-[1,4]oxazin-3-yl)-4-fluoro-phenyl]-amide hydrochloride], 2 nM.

`COCc1cc(Cl)cnc1C(=O)Nc1ccc(F)c([C@]2(C(F)F)COCC(N)=N2)c1` [Example 215, 5-Chloro-3-methoxymethyl-pyridine-2-carboxylic acid [3-((R)-5-amino-3-difluoromethyl-3,6-dihydro-2H-[1,4]oxazin-3-yl)-4-fluoro-phenyl]-amide] displayed an IC50 of 11 nM. For `COc1cnc(C(=O)Nc2ccc(F)c([C@]3(C(F)F)COCC(N)=N3)c2)c(Cl)c1` [Example 161, 3-Chloro-5-methoxy-pyridine-2-carboxylic acid [3-((R)-5-amino-3-difluoromethyl-3,6-dihydro-2H-[1,4]oxazin-3-yl)-4-fluoro-phenyl]-amide] the value was 82 nM; for `COc1cc(C(F)F)c(C(=O)Nc2ccc(F)c([C@]3(C)CO[C@@](C)(C(F)(F)F)C(N)=N3)c2)nn1` [Example 244, 4-Difluoromethyl-6-methoxy-pyridazine-3-carboxylic acid [3-((3R,6R)-5-amino-3,6-dimethyl-6-trifluoromethyl-3,6-dihydro-2H-[1,4]oxazin-3-yl)-4-fluoro-phenyl]-amide hydrochloride], 9 nM; for `CCN1CC(C)(c2cc(NC(=O)c3ccc(Br)cn3)ccc2F)N=C(N)C1=O` (centres unmarked) [Example 191, 5-Bromo-pyridine-2-carboxylic acid [3-(6-amino-4-ethyl-2-methyl-5-oxo-2,3,4,5-tetrahydro-pyrazin-2-yl)-4-fluoro-phenyl]-amide hydrochloride], 30 nM.

As for `Cc1cnc(C(=O)Nc2cccc(C3(C(F)F)COCC(N)=N3)c2)cn1` (centres unmarked) [Example 38], the IC50 amounted to 9010 nM. Compound `NC1=NC(c2cccc(NC(=O)c3ncc(Br)cc3O)c2)(C(F)F)COC1` (centres unmarked) [Example 108] gave an IC50 of 24 nM. For `C[C@@H]1OC[C@](c2cc(NC(=O)c3ccc(Br)cn3)ccc2F)(C(F)F)N=C1N` (relative stereo) [Example 78, 5-Bromo-pyridine-2-carboxylic acid [3-((3R*,6S*)-5-amino-3-difluoromethyl-6-methyl-3,6-dihydro-2H-[1,4]oxazin-3-yl)-4-fluoro-phenyl]-amide hydrochloride] the value was 22 nM; for `Cc1cc(OC(F)F)cnc1C(=O)Nc1ccc(F)c([C@]2(C(F)F)CNCC(N)=N2)c1` (single isomer, unassigned) [Example 212], 116 nM. As to `NC1=N[C@](CF)(c2cc(NC(=O)c3ccc(Cl)cn3)ccc2F)COC1` [Example 85, 5-Chloro-pyridine-2-carboxylic acid [3-((R)-5-amino-3-fluoromethyl-3,6-dihydro-2H-[1,4]oxazin-3-yl)-4-fluoro-phenyl]-amide hydrochloride], the half-maximal inhibitory concentration (IC50) was 8 nM.

In turn, `C#CCOc1cnc(C(=O)Nc2ccc(F)c([C@]3(C(F)F)COCC(N)=N3)c2)c(N)n1` [Example 218] had an IC50 of 125 nM. For `[2H]C([2H])([2H])OC([2H])([2H])c1cc2c(Cl)c[nH]c2nc1C(=O)Nc1ccc(F)c([C@]2(C)CO[C@@](C)(C(F)(F)F)C(N)=N2)c1` [Example 247, 3-Chloro-5-trideuteromethoxy-dideuteromethyl-1H-pyrrolo[2,3-b]pyridine-6-carboxylic acid [3-((3R,6R)-5-amino-3,6-dimethyl-6-trifluoromethyl-3,6-dihydro-2H-[1,4]oxazin-3-yl)-4-fluoro-phenyl]-amide] the value was 44 nM; for `Cn1cc([N+](=O)[O-])c(C(=O)Nc2ccc(F)c([C@]3(C(F)F)COCC(N)=N3)c2)n1` [Example 151], 376 nM.

The values are drawn from patent publication US20140128385A1 (NOVARTIS AG, priority 2011, published 2014).
